We go through four molecules from patent publication US9175031B2, “Ketolide compounds” (WOCKHARDT LIMITED, priority 2010, dated 2015).

In brackets after ≈: the same amount, converted by molar mass.

One series has as its system S pneumoniae mef strains. The series can be described thus: MIC, CLSI agar dilution method. Type of series: cell-based. To be noted: 18 hrs at 37° C. The procedure:
(§1) The antibacterial activity of compounds of the invention was evaluated by determining the minimal inhibitory concentration (MIC) according to standard CLSI agar dilution method. The media used for preculture and main culture were Tryptic Soya broth (Difco) and Mueller Hinton medium (Difco), respectively. The Mueller Hinton agar was supplemented with 5% sheep blood for streptococci and pneumococci, and with haemoglobin as well as NAD (nicotinamide adenine dinucleotide) for Haemophilus influenzae, respectively. Overnight cultures were diluted with buffered saline (pH 7.2) to the final cell density of 5×10^6-10^7 CFU/ml, and each bacterial suspension was applied with a replicator (Denley's multipoint inoculator, UK) onto a series of Mueller-Hinton agar plates containing antibacterial agents at various concentrations. Final inoculum was approximately 10^4 CFU/spot. The plates were incubated for 18 hrs at 37° C. The MIC was defined as the lowest concentration of an antibacterial agent that inhibits the development of visible microbial growth on agar.
(In agar dilution the substance is mixed into plates at graded concentrations.)

In series [1] the test system is S pneumoniae 3773, a high level ermb strain. The series can be described thus: MIC, CLSI agar dilution method. Type of series: cell-based. As to conditions: S pneumoniae 3773, high level ermb strain, 18 hrs at 37° C. The procedure: as §1
The test system of series [2] is S pneumoniae sensitive strains. The series can be described thus: MIC, CLSI agar dilution method. Type of series: cell-based. To be noted: 18 hrs at 37° C. The procedure:
as §1

Series [3] relates to S pyogene 3530, a high level ermb strain. Kind of series: MIC, CLSI agar dilution method. Type of series: cell-based. As to conditions: S pyogene 3530, high level ermb strain, 18 hrs at 37° C. On the procedure:
as §1

A further series relates to H influenzae. Kind of series: MIC, CLSI agar dilution method. Type of series: cell-based. As to conditions: 18 hrs at 37° C. The procedure: as §1
In series [4] the test system is S pneumoniae ermb strains. The series can be described thus: MIC, CLSI agar dilution method. To be noted: 18 hrs at 37° C. Type of series: cell-based. On the procedure: as §1
Another series deals with S pneumoniae 3773. The series can be described thus: In vivo oral efficacy (ED50) in mice intraperitoneally infected with S pneumoniae 3773. To be noted: Mus musculus, two doses at 1 hour and 4 hour after intraperitoneal infection with S pneumoniae 3773, survival on day seven, read-out: ED50 (Dose protecting 50% of infected mice). On the procedure: The in vivo efficacy of compounds of the invention was evaluated by determining ED50 by oral administration of compounds to group of mice (6 mice/dose group) intraperitoneally infected with (5×10^7-1×10^8 CFU/mouse) S pneumoniae 3773. Two doses of compounds of the invention and Telithromycin were administered at 1 hour and 4 hour after infection. On day seven, percentage of animals surviving in various dose groups were employed to determine ED50 (Dose protecting 50% of infected mice)

`CC[C@@H]1OC(=O)[C@@](C)(F)C(=O)[C@H](C)[C@@H](OC2O[C@H](C)C[C@H](N(C)C)[C@H]2O)[C@](C)(OC)C[C@@H](C)C(=O)[C@H](C)[C@H]2[C@H](/C(N)=N/OCc3nnc(-c4ncccn4)s3)C(=O)O[C@@]21C` (stereo partly drawn) [Example 7, (11S,21R)-3-decladinosyl-11,12-dideoxy-2-fluoro-6-O-methyl-3-oxo-12,11-{oxycarbonyl-[E-N-[(5-pyrimidin-2-yl-1,3,4-thiadiazol-2-yl)-methoxy]-carboxamidino]methylene}-erythromycin A] gave a melting point of 192 to 194 °C.
As for `CC[C@H]1OC(=O)[C@H](C)C(=O)[C@H](C)[C@@H](O[C@@H]2O[C@H](C)C[C@H](N(C)C)[C@H]2O)[C@](C)(OC)C[C@@H](C)C(=O)[C@H](C)[C@H]2N(CCCCn3cnc(-c4cccnc4)c3)C(=O)O[C@]12C` [Telithromycin], the MIC against S pneumoniae mef strains was 0.015 to 1 µg/mL (≈ 0.0185 to 1.23 µM); in series [1] it was 4 µg/mL (≈ 4.93 µM); in series [2], 0.007 to 0.015 µg/mL (≈ 0.00862 to 0.0185 µM); in series [3] it was 16 µg/mL (≈ 19.7 µM); against H influenzae it was 4 to 8 µg/mL (≈ 4.93 to 9.85 µM); in series [4], 0.007 to 0.5 µg/mL (≈ 0.00862 to 0.616 µM). Also, the median effective dose (ED50) in the series with S pneumoniae 3773 fell in the range of 75 to 100 mg/kg.
Molecule `CC[C@@H]1OC(=O)[C@H](C)C(=O)[C@H](C)[C@@H](OC2O[C@H](C)C[C@H](N(C)C)[C@H]2O)[C@](C)(OC)C[C@@H](C)C(=O)[C@H](C)[C@H]2[C@H](/C(N)=N/O[C@@H](C)c3nnc(-c4ccccn4)s3)C(=O)O[C@@]21C` (stereo partly drawn) [Example 33, (11S,21R)-3-decladinosyl-11,12-dideoxy-6-O-methyl-3-oxo-12,11-{oxycarbonyl-[E-N-[1-(5-pyridin-2-yl-1,3,4-thiadiazol-2-yl)-(S)-ethoxy]-carboxamidino]methylene}-erythromycin A] returned a melting point of 135 to 137 °C.
Still for that read-out and setting: the result for `CC[C@@H]1OC(=O)[C@@](C)(F)C(=O)[C@H](C)[C@@H](OC2O[C@H](C)C[C@H](N(C)C)[C@H]2O)[C@](C)(OC)C[C@@H](C)C(=O)[C@H](C)[C@H]2[C@H](/C(N)=N/OCc3ncc(-c4ccon4)cn3)C(=O)O[C@@]21C` (stereo partly drawn) [Example 3, (11S,21R)-3-decladinosyl-11,12-dideoxy-2-fluoro-6-O-methyl-3-oxo-12,11-{oxycarbonyl-[E-N-[(5-isoxazol-3-yl-pyrimidin-2-yl)-methoxy]-carboxamidino]methylene}-erythromycin A] reads 196 to 197 °C.

What is called melting point is the temperature of the solid-liquid transition. As a reminder, the ED50 is the dose at which the effect has come halfway, by size or by number of responders.
